The source of these data is patent publication US8772266B2, “Fungicide pyrazole carboxamides derivates” (Bayer Cropscience AG, priority 2009, dated 2014).

Series [1] concerns Fusarium nivale. As to the kind of experiment: In vivo curative test on Fusarium nivale (wheat). The conditions noted are these: 500 ppm of active ingredient, evaluated 8 days after inoculation.
Series [2] in a line: logP by HPLC on reversed-phase column (EEC Directive 79/831 Annex V.A8). The conditions noted are these: 40° C., 0.1% aqueous formic acid and acetonitrile, linear gradient 10% to 90% acetonitrile.
Series [3] concerns Sphaerotheca fuliginea. As to the kind of experiment: In vivo preventive test on Sphaerotheca fuliginea (cucumber), Example G. As to conditions: 10 ppm of active ingredient, evaluated 7 days after inoculation. From the text: After the spray coating has dried on, the plants are inoculated with an aqueous spore suspension of Sphaerotheca fuliginea.
Setting [4] is: HPLC, reversed-phase column (C 18).

For the molecule `CCCCCc1ccccc1CN(C(=O)c1c(C(F)F)nn(C)c1F)C1CC1` [Example 28], the disease control in series [1] is listed as 100%. In series [2] (setting [4]), this molecule showed a logP of 4.62.
`CC[Si](CC)(CC)c1ccccc1CN(C(=O)c1c(C(F)F)nn(C)c1F)C1CC1` [Example 14]: the disease control in series [1] and in series [3] was 100% in each case. In series [2] (setting [4]), the logP is recorded as 5.53.
The molecule `Cc1cc(Br)c(CN(C(=O)c2c(C(F)F)nn(C)c2F)C2CC2)cc1Br` [Example 17] displayed a disease control in series [1] of 100%. The molecule also showed a logP in series [2] (setting [4]) of 4.19.
With `Cn1nc(C(F)F)c(C(=O)N(Cc2cc(Cl)ccc2C2CC2)C2CC2)c1F` [Example 41], the disease control in series [1] and in series [3] was 100% each time. Besides, the logP in series [2] (setting [4]) stood at 3.87.
For `Cn1nc(C(F)F)c(C(=O)N(Cc2c(F)cccc2C(F)(F)F)C2CC2)c1F` [Example 84], the disease control in series [1] and in series [3] was 100% each time.
For the molecule `Cn1nc(C(F)F)c(C(=O)N(Cc2ccc(Cl)cc2Cl)C2CC2)c1F` [Example 63], in series [1], the disease control is on record as 100%. In series [2] (setting [4]), this molecule came in with a lipophilicity (logP) of 3.69.
Turning to `Cn1nc(C(F)F)c(C(=O)N(Cc2c(Cl)cccc2C(F)(F)F)C2CC2)c1F` [Example 2], the disease control in series [1] and in series [3] was 100% throughout. The same molecule registered a logP in series [2] (setting [4]) of 3.46.
For `Cn1nc(C(F)F)c(C(=O)N(Cc2cc(Cl)ccc2[Si](C)(C)C)C2CC2)c1F` [Example 24], the disease control in series [1] and in series [3] was 100% each time. Besides, the log partition coefficient (logP) in series [2] (setting [4]) is 4.81.
For the molecule `CC(C)Cc1ccccc1CN(C(=O)c1c(C(F)F)nn(C)c1F)C1CC1` [Example 33], the disease control in series [1] came out at 100%. In addition, in series [2] (setting [4]), the logP amounted to 4.15.
With `CCc1ccccc1C(C)N(C(=O)c1c(C(F)F)nn(C)c1F)C1CC1` (stereo not shown) [Example 81], the disease control in series [1] and in series [3] was 100% each time. The logP in series [2] (setting [4]) came to 3.69.
On to `Cn1nc(C(F)F)c(C(=O)N(Cc2ccccc2C(F)(F)F)C2CC2)c1F` [Example 61], for which, in series [1], the disease control came to 100%. The molecule also gave a log partition coefficient (logP) in series [2] (setting [4]) of 3.39.
For `Cn1nc(C(F)F)c(C(=O)N(Cc2cccc(-c3ccccc3)c2)C2CC2)c1F` [Example 64] the same measures were 100% and 3.78.
As to `CC(C)c1ccc(Cl)cc1CN(C(=O)c1c(C(F)F)nn(C)c1F)C1CC1` [Example 29], the disease control in series [1] and in series [3] was 100% in each case. This molecule also yielded a logP in series [2] (setting [4]) of 4.09.
In turn, `Cn1nc(C(F)F)c(C(=O)N(Cc2cc(F)c(Br)cc2Br)C2CC2)c1F` [Example 16] registered a disease control in series [1] of 100%. The molecule also showed a logP in series [2] (setting [4]) of 3.96.
With `Cn1nc(C(F)F)c(C(=O)N(Cc2cc(Cl)ccc2I)C2CC2)c1F` [Example 23], the disease control in series [1] and in series [3] was 100% in each case. For the same molecule, the logP in series [2] (setting [4]) is on record as 3.83.
In turn, `CC(c1ncc(C(F)(F)F)cc1Cl)N(C(=O)c1c(C(F)F)nn(C)c1F)C1CC1` (stereo not shown) [Example 90] showed a disease control in series [1] of 100%. In series [2] (setting [4]), this molecule yielded a logP of 3.71.
Consider `CCc1ccccc1CN(C(=O)c1c(C(F)F)nn(C)c1F)C1CC1` [Example 48], for which, in series [1], the disease control is given as 100%. Also, the lipophilicity (logP) in series [2] (setting [4]) was 3.33.
Regarding `CC(C)c1ccccc1C(C)N(C(=O)c1c(C(F)F)nn(C)c1F)C1CC1` (stereo not shown) [Example 80], the disease control in series [1] and in series [3] was 100% each time. Also, the logP in series [2] (setting [4]) was 3.99.
`Cn1nc(C(F)F)c(C(=O)N(Cc2ccc(Cl)cc2I)C2CC2)c1F` [Example 20] registered a disease control in series [1] of 100%. In series [2] (setting [4]), this molecule showed a lipophilicity (logP) of 3.99.
Turning to `Cn1nc(C(F)F)c(C(=O)N(Cc2c(F)cccc2I)C2CC2)c1F` [Example 8], the disease control in series [1] and in series [3] was 100% in each case. The logP in series [2] (setting [4]) is reported as 3.26.
`CC(C)Oc1ccc2c(c1)CCCC2N(C(=O)c1c(C(F)F)nn(C)c1F)C1CC1` (stereo not shown) [Example 42] registered a disease control in series [1] of 100%. This molecule also showed a log partition coefficient (logP) in series [2] (setting [4]) of 4.11.
For `Cn1nc(C(F)F)c(C(=S)N(Cc2ccccc2)C2CC2)c1F` [Example 39], in that order: 100% and 3.44.
The molecule `Cn1nc(C(F)F)c(C(=O)N(Cc2ccccc2OC(F)(F)F)C2CC2)c1F` [Example 105] had a disease control in series [1] of 100%. Besides, in series [2] (HPLC on reversed-phase column (C 18)), the logP is reported as 3.46.
Take `Cn1nc(C(F)F)c(C(=O)N(Cc2c(Br)ccc(F)c2F)C2CC2)c1F` [Example 10]: the disease control in series [1] and in series [3] was 100% throughout. Also, the logP in series [2] (setting [4]) came out at 3.21.
In the case of `Cn1nc(C(F)F)c(C(=O)N(Cc2cc(Cl)cc(Cl)c2Cl)C2CC2)c1F` [Example 18], the disease control in series [1] and in series [3] was 100% in each case. This molecule had a log partition coefficient (logP) in series [2] (setting [4]) of 4.11.
Molecule `CCc1cc(C)c(C)cc1CN(C(=O)c1c(C(F)F)nn(C)c1F)C1CC1` [Example 53] came in with a disease control in series [1] of 100%. Further, the log partition coefficient (logP) in series [2] (setting [4]) was 4.04.
For `Cn1nc(C(F)F)c(C(=O)N(Cc2cc(Cl)ccc2C(F)(F)F)C2CC2)c1Cl` [Example 36], in that order: 100% and 4.01.
For `Cn1nc(C(F)F)c(C(=O)N(Cc2cc(I)ccc2C(F)(F)F)C2CC2)c1F` [Example 43] the same measures were 100% and 4.01.
For `CC(c1cccc2c1CCC(C)(C)C2)N(C(=O)c1c(C(F)F)nn(C)c1F)C1CC1` (racemic) [Example 44], in that order: 100% and 4.89.
In the case of `Cn1nc(C(F)F)c(C(=O)N(Cc2c(C(F)(F)F)ccc(Cl)c2Cl)C2CC2)c1F` [Example 15], the disease control in series [1] and in series [3] was 100% throughout. In series [2] (setting [4]), this molecule had a log partition coefficient (logP) of 3.89.
Molecule `Cn1nc(C(F)F)c(C(=O)N(Cc2cc(Cl)ccc2Br)C2CC2)c1F` [Example 4] returned a disease control in series [1] of 100%. The molecule also gave a logP in series [2] (setting [4]) of 3.67.
For `Cn1nc(C(F)F)c(C(=O)N(Cc2ccccc2I)C2CC2)c1F` [Example 9], in that order: 100% and 3.37.
For `Cn1nc(C(F)F)c(C(=O)N(Cc2cc(Cl)c(Cl)cc2C(F)(F)F)C2CC2)c1F` [Example 25] the same measures were 100% and 4.34.
Turning to `Cc1cc(C)cc(C(C)N(C(=O)c2c(C(F)F)nn(C)c2F)C2CC2)c1` (racemic) [Example 46], in series [1], the disease control was determined as 100%. This molecule also gave a log partition coefficient (logP) in series [2] (setting [4]) of 3.8.
As for `CC(c1cccc2c1CCCC2)N(C(=O)c1c(C(F)F)nn(C)c1F)C1CC1` (racemic) [Example 51], in series [1], the disease control came out at 100%. Further, the logP in series [2] (setting [4]) came to 4.14.

Usually logP stands for a log measure of how a compound divides between an organic and an aqueous phase. Read a high logP as higher lipophilicity.
